According to patent US20210179578A1, “OX1 ANTAGONISTS” (Heptares Therapeutics Limited, priority 2017, published 2021):

Columns and labels:
[1] = target: T1, human OX2 receptor (Homo sapiens, UniProt O43614); experiment: IPone accumulation assay, CHO cells expressing OX2 (antagonism of orexin A); assay type: cell-based; conditions: CHO human OX2, orexin A EC80 challenge (40 nM), read-out: fpKb average OX2 (converted)
T1 sequence (O43614 1-444): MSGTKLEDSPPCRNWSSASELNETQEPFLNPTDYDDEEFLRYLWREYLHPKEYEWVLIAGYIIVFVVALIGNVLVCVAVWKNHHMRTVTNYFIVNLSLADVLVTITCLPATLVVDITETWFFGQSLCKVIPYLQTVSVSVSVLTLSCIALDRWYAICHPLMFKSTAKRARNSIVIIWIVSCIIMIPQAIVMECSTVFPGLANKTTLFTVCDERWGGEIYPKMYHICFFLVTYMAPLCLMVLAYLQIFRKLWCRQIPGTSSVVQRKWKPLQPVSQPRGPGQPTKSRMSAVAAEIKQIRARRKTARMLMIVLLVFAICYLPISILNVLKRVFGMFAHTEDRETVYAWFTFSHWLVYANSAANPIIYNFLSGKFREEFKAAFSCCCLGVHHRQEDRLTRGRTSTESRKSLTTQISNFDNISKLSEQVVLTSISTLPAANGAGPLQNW
Description: Generation of CHO stable cell lines expressing the human OX1R and OX2R. Stable cell lines for the human OX1R and OX2R receptors were generated through the transfection of CHO cells using the transfection reagent Genejuice (Novagen number 70967) and cDNA coding for either the human OX1R or OX2R. Cells were cultured in Sigma Nutrient Mixture F-12 Ham media (catalog number N6658) supplemented with 10% heat-inactivated FBS. Forty-eight hours after transfection, cells were harvested and placed under geneticin selection by culturing in Sigma Nutrient Mixture F-12 Ham media supplemented with 10% heat-inactivated FBS and geneticin (ThermoFisher Catalog number: 10131035). Selection of the final stable clone for each receptor was made on the basis of receptor expression, assay signal to noise and robustness though increasing passage. Selected clones for the human OX1R and OX2R were then frozen down into liquid nitrogen using Cell Freezing Medium-DMSO (Sigma-Aldrich catalog number: C6164).
(§1) IPone accumulation assay. A CHO cell line stably expressing either human OX1 or OX2 receptor was used with the IPone HTRF assay kit (CisBio: Part #62IPAPEJ) to measure receptor activation. The assay was optimised to measure the ability (potency; fpKb) of antagonists to reduce agonist (orexin A)-induced inositol phosphate turnover. Briefly, cells were plated onto half area 96-well white walled plates at a density of 12,500 cells/well. Sixteen hours post-plating cell growth media was replaced with antagonist concentration-response curve diluted in stimulation buffer (supplied with the kit). Cells were incubated in a humidified incubator (37° C.) for 30 min before an EC80 challenge concentration (˜20 nM (OX1) and 40 nM (OX2)) of orexin A (Tocris catalogue number 1455). After 30 min stimulation in a humidified incubator (37° C.) the assay was terminated by the addition of detection mixture as per manufacturer's instructions. The concentration of compound which reduced orexin-A stimulated turnover of inositol phosphates by 50% (IC50) was calculated by fitting to a four parameter sigmoidal dose response curve. The IC50 values were converted to fpKB values using the orexin A pEC50 value estimated on each plate as well as the challenge concentration interpolated from the orexin A control curve.

[2] = target: T2, human OX1 receptor (Homo sapiens, UniProt O43613); experiment: IPone accumulation assay, CHO cells expressing OX1 (antagonism of orexin A); assay type: cell-based; conditions: IPone accumulation, CHO human OX1, orexin A EC80 challenge (~20 nM); read-out: fpKb average OX1 (converted)
T2 sequence (O43613 1-425): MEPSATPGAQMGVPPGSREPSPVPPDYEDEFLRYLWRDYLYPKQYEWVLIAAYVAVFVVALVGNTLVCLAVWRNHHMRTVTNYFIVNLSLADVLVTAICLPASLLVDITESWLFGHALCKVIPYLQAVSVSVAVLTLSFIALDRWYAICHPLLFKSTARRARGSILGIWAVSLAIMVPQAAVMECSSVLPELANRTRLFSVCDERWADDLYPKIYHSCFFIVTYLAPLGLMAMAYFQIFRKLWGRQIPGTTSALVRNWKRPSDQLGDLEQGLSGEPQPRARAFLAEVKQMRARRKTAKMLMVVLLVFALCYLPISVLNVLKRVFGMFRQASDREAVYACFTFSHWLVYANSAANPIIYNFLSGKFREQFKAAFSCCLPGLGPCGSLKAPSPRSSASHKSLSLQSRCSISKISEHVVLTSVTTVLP
Description: as §1, with “Generation of CHO stable cell lines expressing the human OX1R and OX2R. Stable cell lines for the human OX1R and OX2R receptors were generated through the transfection of CHO cells using the transfection reagent Genejuice (Novagen number 70967) and cDNA coding for either the human OX1R or OX2R. Cells were cultured in Sigma Nutrient Mixture F-12 Ham media (catalog number N6658) supplemented with 10% heat-inactivated FBS. Forty-eight hours after transfection, cells were harvested and placed under geneticin selection by culturing in Sigma Nutrient Mixture F-12 Ham media supplemented with 10% heat-inactivated FBS and geneticin (ThermoFisher Catalog number: 10131035). Selection of the final stable clone for each receptor was made on the basis of receptor expression, assay signal to noise and robustness though increasing passage. Selected clones for the human OX1R and OX2R were then frozen down into liquid nitrogen using Cell Freezing Medium-DMSO (Sigma-Aldrich catalog number: C6164). IPone accumulation” for “IPone accumulation”, “(CisBio: Part #62[…]) to measure” for “(CisBio: Part #62IPAPEJ) to measure”, “challenge concentration ( 20 nM (OX1)” for “challenge concentration (˜20 nM (OX1)”

Row | Kb [1] | Kb [2] | Compound
1 | > 3160 nM | 31.6 nM | COc1ncc(C2CCc3c(F)cccc3N(Cc3c(F)cc(Br)cc3F)C2=O)cc1S(C)(=O)=O (racemic) [Example 19, 1-(4-bromo-2,6-difluorobenzyl)-6-fluoro-3-[6-methoxy-5-(methylsulfonyl)pyridin-3-yl]-1,3,4,5-tetrahydro-2H-1-benzazepin-2-one]
2 | > 1000 nM | 12.6 nM | COc1ncc(C2CCc3c(F)cccc3N(Cc3c(F)cc(Br)cc3F)C2=O)cc1C(C)(F)F (single isomer, unassigned) [Example 12, 1-(4-bromo-2,6-difluorobenzyl)-3-[5-(1,1-difluoroethyl)-6-methoxypyridin-3-yl]-6-fluoro-1,3,4,5-tetrahydro-2H-1-benzazepin-2-one]
3 | > 1580 nM | 10 nM | COc1ncc(C2CCc3c(F)cccc3N(Cc3c(F)cc(Br)cc3F)C2=O)cc1S(C)(=O)=O (single isomer, unassigned) [Example 21, 1-(4-bromo-2,6-difluorobenzyl)-6-fluoro-3-[6-methoxy-5-(methylsulfonyl)pyridin-3-yl]-1,3,4,5-tetrahydro-2H-1-benzazepin-2-one]
4 | > 2510 nM | 63.1 nM | Cc1ncc(C2CCc3c(F)cccc3N(Cc3c(F)cc(Br)cc3F)C2=O)cc1C(C)(F)F (single isomer, unassigned) [Example 35, 1-(4-bromo-2,6-difluorobenzyl)-3-[5-(1,1-difluoroethyl)-6-methylpyridin-3-yl]-6-fluoro-1,3,4,5-tetrahydro-2H-1-benzazepin-2-one]
5 | > 2000 nM | 20 nM | Cc1ncc(C2CCc3c(F)cccc3N(Cc3c(F)cc(Br)cc3F)C2=O)cc1C(C)(F)F (single isomer, unassigned) [Example 36, 1-(4-bromo-2,6-difluorobenzyl)-3-[5-(1,1-difluoroethyl)-6-methylpyridin-3-yl]-6-fluoro-1,3,4,5-tetrahydro-2H-1-benzazepin-2-one]
6 | > 398 nM | 20 nM | Cc1ncc(C2CCc3c(F)cccc3N(Cc3c(F)cc(Br)cc3F)C2=O)cc1S(C)(=O)=O (single isomer, unassigned) [Example 38, 1-(4-bromo-2,6-difluorobenzyl)-6-fluoro-3-[6-methyl-5-(methylsulfonyl)pyridin-3-yl]-1,3,4,5-tetrahydro-2H-1-benzazepin-2-one]
7 | > 2510 nM | 31.6 nM | Cc1ncc(C2CCc3c(F)cccc3N(Cc3c(F)cc(Br)cc3F)C2=O)cc1S(C)(=O)=O (single isomer, unassigned) [Example 39, 1-(4-bromo-2,6-difluorobenzyl)-6-fluoro-3-[6-methyl-5-(methylsulfonyl)pyridin-3-yl]-1,3,4,5-tetrahydro-2H-1-benzazepin-2-one]
8 | > 794 nM | 50.1 nM | COc1ncc(N2CCc3c(F)cccc3N(Cc3c(F)cc(Br)cc3F)C2=O)cc1C(C)(F)F [Example 3, 1-(4-bromo-2,6-difluorobenzyl)-3-[5-(1,1-difluoroethyl)-6-methoxypyridin-3-yl]-6-fluoro-1,3,4,5-tetrahydro-2H-1,3-benzodiazepin-2-one]

The next lines start with the compound.

Row | Compound | Kb [1] | Kb [2]
9 | COc1ncc(C2CCc3c(F)cccc3N(Cc3cc(C#N)ccc3F)C2=O)cc1C(C)(F)F (single isomer, unassigned) [Example 13, 3-({3-[5-(1,1-difluoroethyl)-6-methoxypyridin-3-yl]-6-fluoro-2-oxo-2,3,4,5-tetrahydro-1H-1-benzazepin-1-yl}methyl)-4-fluorobenzonitrile] | > 794 nM | 50.1 nM
10 | COc1ncc(C2CCc3c(F)cccc3N(Cc3c(F)cc(Cl)cc3F)C2=O)cc1S(C)(=O)=O (single isomer, unassigned) [Example 22, 1-(4-chloro-2,6-difluorobenzyl)-6-fluoro-3-[6-methoxy-5-(methylsulfonyl)pyridin-3-yl]-1,3,4,5-tetrahydro-2H-1-benzazepin-2-one] | > 1000 nM | 10 nM
11 | Cc1ccc(N2CCc3c(F)cccc3N(Cc3c(F)cc(Br)cc3F)C2=O)cc1C(C)(F)F [Example 1, 1-(4-bromo-2,6-difluorobenzyl)-3-[3-(1,1-difluoroethyl)-4-methylphenyl]-6-fluoro-1,3,4,5-tetrahydro-2H-1,3-benzodiazepin-2-one] | > 3160 nM | 158 nM
12 | [2H]C([2H])([2H])Oc1ncc(N2CCc3c(F)cccc3N(Cc3c(F)cc(Br)cc3F)C2=O)cc1C(C)(F)F [Example 2, 1-(4-bromo-2,6-difluorobenzyl)-3-{5-(1,1-difluoroethyl)-6-[(^2H3)methyloxy]pyridin-3-yl}-6-fluoro-1,3,4,5-tetrahydro-2H-1,3-benzodiazepin-2-one] | > 3980 nM | 20 nM
13 | COc1ccc(CN2C(=O)N(c3cnc(OC)c(C(C)(F)F)c3)CCc3c(F)cccc32)c(F)c1 [Example 4, 3-[5-(1,1-difluoroethyl)-6-methoxypyridin-3-yl]-6-fluoro-1-(2-fluoro-4-methoxybenzyl)-1,3,4,5-tetrahydro-2H-1,3-benzodiazepin-2-one] | > 3980 nM | 15.8 nM
14 | [2H]C([2H])([2H])OCc1cc(F)c(CN2C(=O)N(c3cnc(OC)c(C(C)(F)F)c3)CCc3c(F)cccc32)c(F)c1 [Example 5, 3-[5-(1,1-difluoroethyl)-6-methoxypyridin-3-yl]-1-(2,6-difluoro-4-{[(^2H3)methyloxy]methyl}benzyl)-6-fluoro-1,3,4,5-tetrahydro-2H-1,3-benzodiazepin-2-one] | > 2000 nM | 1.58 nM
15 | [2H]C([2H])([2H])Oc1cc(F)c(CN2C(=O)N(c3cnc(OC)c(C(C)(F)F)c3)CCc3c(F)cccc32)c(F)c1 [Example 6, 3-[5-(1,1-difluoroethyl)-6-methoxypyridin-3-yl]-1-{2,6-difluoro-4-[(^2H3)methyloxy]benzyl}-6-fluoro-1,3,4,5-tetrahydro-2H-1,3-benzodiazepin-2-one] | 398 nM | 10 nM
